Holding throughout (format): biochemical
In assay [1] the target is T1, Helianthus annuus EPSPS, native, SEQ ID NO:9 (Helianthus annuus, UniProt A0A251S0N3).
T1 sequence (A0A251S0N3 67-518): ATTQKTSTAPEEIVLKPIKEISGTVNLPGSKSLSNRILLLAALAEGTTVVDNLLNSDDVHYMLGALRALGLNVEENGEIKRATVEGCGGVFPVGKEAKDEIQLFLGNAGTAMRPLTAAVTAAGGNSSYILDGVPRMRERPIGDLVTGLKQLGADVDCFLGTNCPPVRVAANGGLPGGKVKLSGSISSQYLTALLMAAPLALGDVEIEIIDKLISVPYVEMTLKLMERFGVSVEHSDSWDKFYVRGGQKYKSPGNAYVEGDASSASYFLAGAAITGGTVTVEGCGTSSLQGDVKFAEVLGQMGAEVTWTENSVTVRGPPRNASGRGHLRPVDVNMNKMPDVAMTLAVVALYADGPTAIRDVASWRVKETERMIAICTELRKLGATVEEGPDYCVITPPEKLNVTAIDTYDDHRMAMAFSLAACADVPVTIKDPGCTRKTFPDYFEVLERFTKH
The assay can be described thus: EPSPS substrate saturation kinetics, native sunflower. The protocol: (§1) EPSPS activity was determined by quantifying the phosphate generated from the EPSPS reaction. Release of inorganic phosphate was coupled to reaction with 2-amino-6-mercapto-7-methylpurine ribonucleoside, catalyzed by purine-nucleoside phosphorylase (M R Webb, Proc. Natl. Acad. Sci. 89:4884-4887, 1992). The absorbance change that occurs was monitored at 360 nm, where the extinction is 11,200 M^−1 cm^−1, with a Spectramax plate reader (Molecular Devices). To determine kinetic parameters, the varied substrate was present at seven concentrations (the eighth being the blank, containing no substrate) ranging from 4 to 400 uM and the unvaried substrate present at saturation. Six microliters of 50-fold concentrated stock solutions of the varied substrate were placed in the wells of the 96-well assay plate and reactions were started with the addition of a mixture containing 25 mM Hepes, pH 7, 100 mM KCl, 0.3 mM 2-amino-6-mercapto-7-methylpurine ribonucleosde, 1 uM (1 unit/ml) purine-nucleoside phosphorylase (Sigma N8264) and 200 uM of the non-varied substrate. Reactions were monitored with a Spectramax plate reader. The Michaelis-Menten kinetics protocol of the Spectramax software was customized for the substrate concentrations used. The software returns values of KM and Vmax using the Lineweaver-Burke transformation of the Michaelis-Menten equation. To determine kcat, Vmax (uM/min) was divided by the enzyme concentration (uM). […] KI was then calculated from the following form of the Michaelis-Menten equation for competitive inhibition: KI=KM[I]/(KM app−KM) KM approximates the dissociation constant of the enzyme-substrate complex while kcat is the rate of conversion of substrate to product when the substrate concentration is saturating. kcat/KM is a widely accepted parameter for catalytic efficiency when substrate concentration is low (˜KM). […] The parameter kcat/KM×KI is used to quantify both catalytic efficiency and insensitivity and thus the overall fitness of the enzyme.
Native EPSPS amino acid sequences of rice (Oryza sativa) (SEQ ID NO:7), sorghum (Sorghum halepense) (SEQ ID NO:8), and sunflower (Helianthus annus) (SEQ ID NO:9) including the chloroplast transit peptide sequences were assembled and analyzed for mapping the corresponding amino acid mutations from the maize 868-H6. If complete EPSPS sequences were not available, appropriate adjustments were made based on sequence alignments and conserved residue mapping.
There is no complete sequence available for Helianthus annuus. […]
ChloroP Prediction Server (Emanuelsson, O. et al. 1999. Protein Sci. 8(5):978-84) was used to approximate the amino terminus of the mature EPSPS proteins. […] The synthetic genes were cloned into a plasmid vector and expressed, purified and analyzed as described in Example 1.

Assay [2] addresses T2, Zea mays EPSPS variant L-T at positions 103-107 (Zea mays, UniProt O24566, P106T/T102L).
T2 sequence (O24566 with tags, fused parts or gaps T102L/P106T): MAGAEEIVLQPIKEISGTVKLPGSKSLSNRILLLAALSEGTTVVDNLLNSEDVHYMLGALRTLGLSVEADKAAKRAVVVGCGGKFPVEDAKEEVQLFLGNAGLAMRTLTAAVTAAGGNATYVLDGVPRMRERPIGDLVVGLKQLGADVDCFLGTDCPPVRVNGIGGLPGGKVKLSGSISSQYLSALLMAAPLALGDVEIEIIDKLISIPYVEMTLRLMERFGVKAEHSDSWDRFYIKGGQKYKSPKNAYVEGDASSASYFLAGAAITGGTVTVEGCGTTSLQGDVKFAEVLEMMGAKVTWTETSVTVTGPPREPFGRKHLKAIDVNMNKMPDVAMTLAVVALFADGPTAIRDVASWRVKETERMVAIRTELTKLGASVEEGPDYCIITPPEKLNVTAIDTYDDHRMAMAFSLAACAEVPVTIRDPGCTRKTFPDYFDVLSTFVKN
Kind of assay: EPSPS substrate saturation kinetics, maize variant 103L 107T. The protocol: as §1, with “enzyme. […]” for “enzyme.”

Assay [3] deals with Zea mays EPSPS variant WT-FS-B (103I 107S 278G 338S) (Zea mays, UniProt O24566, A337S/P106S/T102I/T277G). The assay can be described thus: EPSPS substrate saturation kinetics, WT-FS-B. The protocol: EPSPS activity was determined by quantifying the phosphate generated from the EPSPS reaction. Release of inorganic phosphate was coupled to reaction with 2-amino-6-mercapto-7-methylpurine ribonucleoside, catalyzed by purine-nucleoside phosphorylase (M R Webb, Proc. Natl. Acad. Sci. 89:4884-4887, 1992). The absorbance change that occurs was monitored at 360 nm, where the extinction is 11,200 M^−1 cm^−1, with a Spectramax plate reader (Molecular Devices). To determine kinetic parameters, the varied substrate was present at seven concentrations (the eighth being the blank, containing no substrate) ranging from 4 to 400 uM and the unvaried substrate present at saturation. […] Reactions were monitored with a Spectramax plate reader. […] KI was then calculated from the following form of the Michaelis-Menten equation for competitive inhibition: KI=KM[I]/(KM app−KM) KM approximates the dissociation constant of the enzyme-substrate complex while kcat is the rate of conversion of substrate to product when the substrate concentration is saturating. kcat/KM is a widely accepted parameter for catalytic efficiency when substrate concentration is low (˜KM). […] The parameter kcat/KM×KI is used to quantify both catalytic efficiency and insensitivity and thus the overall fitness of the enzyme. […]

Where [4] appears, read: PEP as substrate, glyphosate as inhibitor.

Chain of Zea mays EPSPS variant WT-FS-B (103I 107S 278G 338S) (O24566 entry or part of it T102I/P106S/T277G/A337S): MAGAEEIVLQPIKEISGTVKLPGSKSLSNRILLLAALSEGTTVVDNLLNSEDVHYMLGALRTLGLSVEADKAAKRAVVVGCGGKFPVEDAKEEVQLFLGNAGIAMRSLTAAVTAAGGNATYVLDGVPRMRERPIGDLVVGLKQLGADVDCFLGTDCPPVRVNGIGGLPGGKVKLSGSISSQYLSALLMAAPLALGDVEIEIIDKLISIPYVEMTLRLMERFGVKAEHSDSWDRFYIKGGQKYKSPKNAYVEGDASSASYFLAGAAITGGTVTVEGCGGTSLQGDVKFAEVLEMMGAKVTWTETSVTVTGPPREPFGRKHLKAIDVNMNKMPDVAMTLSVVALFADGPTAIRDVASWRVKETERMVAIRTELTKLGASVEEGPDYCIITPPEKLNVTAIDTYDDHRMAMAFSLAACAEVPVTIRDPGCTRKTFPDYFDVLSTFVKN

In the case of `C=C(OP(=O)(O)O)C(=O)O` [PEP, phosphoenolpyruvate], the kcat in assay [1] (PEP varied) turned out to be 29.52 s⁻¹; in assay [2] (PEP varied) it was 184. Further, the Michaelis constant (Km) in assay [1] (read-out: KM (PEP), PEP varied) was found to be 18.8 µM.

With `O=C(O)CNCP(=O)(O)O` [glyphosate, N-phosphonomethylglycine], the Ki in assay [3] came to 552 µM; in assay [1] it was 0.15 µM; in assay [2], 289 µM. In addition, the “(kcat/KM)*KI” value in assay [3] (setting [4]) came to 1971; in assay [1] (setting [4]) it was 14; in assay [2] (setting [4]) it was 1163.

By Km is commonly meant the concentration of substrate that gives half-maximal velocity. Broadly, the Ki is a measure of affinity in units of concentration, obtained from inhibition or displacement.

These data come from patent US11549123B2, “Plant EPSP synthases and methods of use” (PIONEER HI-BRED INTERNATIONAL, INC., priority 2015, dated 2023).
